In one data set the target is CSF-1R (Homo sapiens (Human), UniProt P07333). Kind of data set: In vitro enzymatic inhibitory activity, CSF-1R kinase (33P-ATP filter-binding). Format: biochemical. To be noted: CSF-1R 2.5 nM, 2 h room temperature. As to the method:
Basic reaction buffer: 20 mM hydroxyethylpiperazine ethane sulfonic acid (pH 7.5), 10 mM magnesium chloride, 1 mM EGTA, 0.02% Brij35, 0.02 mg/mL bovine serum albumin, 0.1 mM
Na3VO4, 2 mM DTT, 1% DMSO
Necessary cofactors were separately added to the CSF-1R kinase reaction.
The test compounds were prepared into solutions of specified concentrations in 100% DMSO, and the solutions were serially diluted in DMSO using the Integra Viaflo Assist.
1. A fresh medium preparation reaction buffer was prepared;
2. All necessary cofactors were added to the reaction buffer described above;
3. The kinase was added into the medium solution and the mixture was shaked gently;
4. Solutions of the compounds in DMSO were added to the kinase reaction mixture using an acoustic technique (Echo550; in nanoliter range), and the system was incubated at room temperature for 20 min;
5. ^33P-ATP (specific activity: 10 μCi/μL) was added to the reaction mixture to initiate the reaction;
6. The mixture was incubated for 2 h at room temperature;
7. The kinase activity was detected by a filter-binding method;
8. The kinase activity IC50 values and the curves were obtained by comparison with the other kinases and the vehicle (DMSO) group using Prism (GraphPad software).

The test system of a further data set is MDR1-MDCK. Briefly: Permeability study (MDR1-MDCK), bi-directional transport. The class given is in vitro ADME. To be noted: conclusion in words.
The next data set has as its target CYP1A2 (Homo sapiens (Human), UniProt P05177). Kind of data set: Cytochrome enzyme inhibition study, CYP1A2. Format: in vitro ADME. To be noted: human liver microsomes, mixed probe substrate; read-out: CYP inhibition (IC50, μM) 1A2. As to the method: (§1) A mixed probe substrate of CYP isoenzymes were used to evaluate the inhibitory effect of test compounds on human liver microsomal cytochrome P450 isoenzymes (CYP1A2, CYP2C9, CYP2C19, CYP2D6 and CYP3A4). The test compounds were prepared into 10 mM stock solutions with DMSO. A 178 μL solution of human liver microsome and substrate mixture was added to the non-inhibitor control (NIC) and test compound wells of the reaction plate and the reaction was then placed on ice. 2 μL of blank solvent and test compound working solution were taken from the dilution plate, and added to the reaction plate (at final concentrations of 0.05-50 μM). The reaction plate was prewarmed in a 37±0.2° C. water bath for 10 min. 20 μL of the cofactor solution was taken by a liquid treatment workstation and added into the reaction plate to initiate the reaction. After 10 min, 400 μL of terminating solution was added to the reaction plate to terminate the reaction, and the reaction plate was incubated on ice for 5 min. […] The peak areas of the substrate and the product were detected by liquid chromatography-mass spectrometer (LC/MS/MS). […] The peak area ratio of the metabolite generated by the probe substrate to the internal standard was determined by liquid chromatography-mass spectrometer (LC-MS/MS). […] IC50 values were calculated by a three-parameter or four-parameter sigmoidal logarithmic equation. […]
(Liver microsomes are vesicles of endoplasmic reticulum, rich in cytochrome P450 enzymes.)

Another data set has as its target CYP2C9 (Homo sapiens (Human), UniProt P11712). Briefly: Cytochrome enzyme inhibition study, CYP2C9. The class given is in vitro ADME. To be noted: human liver microsomes, mixed probe substrate; read-out: CYP inhibition (IC50, μM) 2C9. As to the method:
as §1

The next data set concerns the target CYP2C19 (Homo sapiens (Human), UniProt P33261). Kind of data set: Cytochrome enzyme inhibition study, CYP2C19. To be noted: human liver microsomes, mixed probe substrate; read-out: CYP inhibition (IC50, μM) 2C19. Format: in vitro ADME. As to the method:
as §1

The target in a further data set is CYP2D6 (Homo sapiens (Human), UniProt P10635). Kind of data set: Cytochrome enzyme inhibition study, CYP2D6. To be noted: human liver microsomes, mixed probe substrate; read-out: CYP inhibition (IC50, μM) 2D6. Format: in vitro ADME. The procedure:
as §1

For another data set, the target named is CYP3A4 (Homo sapiens (Human), UniProt P08684). Kind of data set: Cytochrome enzyme inhibition study, CYP3A4. Format: in vitro ADME. To be noted: human liver microsomes, mixed probe substrate; read-out: CYP inhibition (IC50, μM) 3A4. The procedure: as §1
Data set [1] can be described thus: Pharmacokinetic study in mice. To be noted: male, C57BL/6J, plasma, mouse. Format: in vivo, male C57BL/6J mice. The text has this:
(§2) This study was intended to explore the pharmacokinetics of the test compound in the plasma of male C57BL/6J mice and SD rats after intravenous and oral administrations.
(§3) The animals were randomized into two groups of 3 male animals. The compounds were formulated as designated (vehicle: 0.5% MC), i.e., clear solutions for intravenous injection and clear or homogeneous suspensions for oral formulations.
(§4) Animal whole blood samples were collected by jugular vein puncture or from saphenous vein at 5 min, 15 min and 30 min and 1 h, 2 h, 4 h, 6 h and 8 h post-dose. The whole blood samples were added to centrifuge tubes containing anticoagulant and centrifuged at 4° C., 3000 g for 15 min. The plasma supernatant was taken and quickly frozen on dry ice and stored in a freezer at −70±10° C. before LC-MS/MS analysis.
(§5) Plasma drug concentration data for compounds were processed in a non-compartmental model using WinNonlin™ Version 6.3.0 (Pharsight, Mountain View, CA) pharmacokinetic software. Peak concentration (Cmax) and time to peak (Tmax) and time of the last quantifiable concentration were directly obtained from the plasma concentration-time curve.
(§6) The following pharmacokinetic parameters were calculated using the log-linear trapezoidal method: plasma clearance (CL), volume of distribution (Vd), elimination phase half-life (T1/2), mean retention time of the compound from point 0 to the last time point (MRT0-last), mean retention time of the compound from point 0 to infinite (MRT0-inf), area under the time-plasma concentration curve from point 0 to the last time point (AUC0-last), area under the time-plasma concentration curve from point 0 to infinite (AUC0-inf) and bioavailability (F).

The nature of data set [2]: Pharmacokinetic study in rats. Format: in vivo. To be noted: male, SD, plasma, rat.
Description: as §2, §3, §4, §5, §6

Data set [3] has as its system Ba/F3-TEL-CSF1R cell in situ graft tumor. Kind of data set: In vivo pharmacodynamic study, Ba/F3-TEL-CSF1R cell in situ graft tumor model (splenomegaly). The arrangement: species or system nu/nu mice. To be noted: for efficacy in TEL-CSF1R-BaF3 cell splenomegaly assay: p.o., QD. As to the method: The in vivo efficacy of compound 1 hydrochloride on Ba/F3-TEL-CSF1R cell in situ graft tumor model was evaluated.
• Cell culture: Ba/F3-TEL-CSF1R cells were cultured in 1640 medium (Biological Industries)+10% fetal bovine serum (BI)+1% dual antibiotic solution (Penicilin Streptomycin Solution, Coring, USA) at 37° C. at 5% CO2 and passaged twice a week. When the saturation reached 80%-90% and met the requirement, the cells were collected, counted and grafted. • Animals: 28 nu/nu mice, female, aged 6-8 weeks, 18-22 g, supplied by Beijing Vital River Laboratory Animal Technology Co., Ltd. • Tumor grafting: 0.2 mL of Ba/F3-TEL-CSF1R cell suspension (2×10^6 cells) was grafted into each mouse through tail vein injection, and the mice were randomized by weight on day 10. • Grouping and dosing regimens
The animals were housed in SPF animal rooms in independent cages with air supply, and each cage contained no more than 5 animals. • ? Temperature: 20-26° C. • ? Humidity: 35%-75% • ? Illumination: 12 h/12 h light/darkness cycle • ? Corn core padding, changed once a week • ? […] Labeling: ear cutting. • Grouping: The subcutaneous tumor-bearing state was observed every day after grafting; the body weight and tumor volume were measured before grouping, and the mice were randomized according to the data. • Observation: The drafting and any modification of the protocol were approved by the Ethics
Committee of Laboratory Animal Welfare of Precision Preceding Do Co., Ltd. (Hefei, China). Animals were monitored daily for health and mortality, including, for example, tumor growth, mobility, diet, weight, eye, hair and other abnormal behaviors, appearance, signs or other abnormalities. The numbers of deaths and adverse events in the groups were recorded based on the number of animals. • Parameters: The body weights were measured and animal survival rate observed daily; at the end of the study (4 h after the last dose), the mice were euthanized and the spleen and liver were collected, weighed and photographed. • The results are shown in FIG. 1.

Where a name gives a salt, the structure may show the parent alone.

Chain of CSF-1R (P07333 20-972): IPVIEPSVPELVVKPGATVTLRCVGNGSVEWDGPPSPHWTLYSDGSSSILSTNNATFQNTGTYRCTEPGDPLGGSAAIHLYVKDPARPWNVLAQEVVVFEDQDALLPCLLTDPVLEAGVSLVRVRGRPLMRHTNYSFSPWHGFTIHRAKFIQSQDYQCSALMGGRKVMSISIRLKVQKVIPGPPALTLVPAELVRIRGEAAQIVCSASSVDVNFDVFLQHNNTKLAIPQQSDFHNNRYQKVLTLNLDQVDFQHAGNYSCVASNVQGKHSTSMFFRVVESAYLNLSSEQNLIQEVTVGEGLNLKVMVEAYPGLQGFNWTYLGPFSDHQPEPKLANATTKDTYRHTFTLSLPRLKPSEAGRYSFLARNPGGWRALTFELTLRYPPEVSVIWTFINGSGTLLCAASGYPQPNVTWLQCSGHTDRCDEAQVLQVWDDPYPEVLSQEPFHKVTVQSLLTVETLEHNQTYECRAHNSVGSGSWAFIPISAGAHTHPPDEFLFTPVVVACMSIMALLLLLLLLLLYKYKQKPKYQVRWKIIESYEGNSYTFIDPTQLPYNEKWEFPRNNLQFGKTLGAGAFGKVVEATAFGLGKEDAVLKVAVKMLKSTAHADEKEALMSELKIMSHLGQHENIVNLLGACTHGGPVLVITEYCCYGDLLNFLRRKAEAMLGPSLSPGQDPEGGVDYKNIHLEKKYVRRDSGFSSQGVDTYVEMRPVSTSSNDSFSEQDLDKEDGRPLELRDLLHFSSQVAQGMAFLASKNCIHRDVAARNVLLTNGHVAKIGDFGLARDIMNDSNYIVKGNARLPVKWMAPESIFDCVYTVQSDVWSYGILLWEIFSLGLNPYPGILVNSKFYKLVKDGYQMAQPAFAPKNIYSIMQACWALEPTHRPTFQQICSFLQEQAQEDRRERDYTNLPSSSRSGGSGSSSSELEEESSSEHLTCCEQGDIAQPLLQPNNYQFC
Chain of CYP2C19 (P33261 whole entry): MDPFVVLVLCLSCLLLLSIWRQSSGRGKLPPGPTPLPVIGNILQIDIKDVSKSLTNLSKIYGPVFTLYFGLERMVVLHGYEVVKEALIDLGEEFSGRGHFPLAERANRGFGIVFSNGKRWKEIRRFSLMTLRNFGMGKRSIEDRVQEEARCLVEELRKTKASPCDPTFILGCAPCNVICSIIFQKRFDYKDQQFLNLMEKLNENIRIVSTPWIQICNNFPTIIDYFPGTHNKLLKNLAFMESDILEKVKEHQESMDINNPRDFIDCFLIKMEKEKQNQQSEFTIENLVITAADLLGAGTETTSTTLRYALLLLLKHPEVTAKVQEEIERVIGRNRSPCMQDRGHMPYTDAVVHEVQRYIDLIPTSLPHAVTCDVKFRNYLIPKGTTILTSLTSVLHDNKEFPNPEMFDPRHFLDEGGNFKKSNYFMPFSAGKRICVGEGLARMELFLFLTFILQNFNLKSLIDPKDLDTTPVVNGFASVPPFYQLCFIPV
Chain of CYP2C9 (P11712 whole entry): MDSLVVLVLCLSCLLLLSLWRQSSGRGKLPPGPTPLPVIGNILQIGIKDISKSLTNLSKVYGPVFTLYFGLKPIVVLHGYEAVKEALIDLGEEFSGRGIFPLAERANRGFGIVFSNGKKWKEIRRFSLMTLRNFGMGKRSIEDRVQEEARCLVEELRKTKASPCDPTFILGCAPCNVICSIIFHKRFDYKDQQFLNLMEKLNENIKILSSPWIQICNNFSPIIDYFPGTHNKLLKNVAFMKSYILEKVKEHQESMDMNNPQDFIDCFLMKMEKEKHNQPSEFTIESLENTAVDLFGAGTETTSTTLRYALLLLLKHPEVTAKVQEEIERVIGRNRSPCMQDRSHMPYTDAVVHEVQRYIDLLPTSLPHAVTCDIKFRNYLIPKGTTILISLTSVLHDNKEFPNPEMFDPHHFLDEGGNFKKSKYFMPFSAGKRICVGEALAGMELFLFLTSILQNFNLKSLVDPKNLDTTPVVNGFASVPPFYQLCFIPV
Chain of CYP1A2 (P05177 whole entry): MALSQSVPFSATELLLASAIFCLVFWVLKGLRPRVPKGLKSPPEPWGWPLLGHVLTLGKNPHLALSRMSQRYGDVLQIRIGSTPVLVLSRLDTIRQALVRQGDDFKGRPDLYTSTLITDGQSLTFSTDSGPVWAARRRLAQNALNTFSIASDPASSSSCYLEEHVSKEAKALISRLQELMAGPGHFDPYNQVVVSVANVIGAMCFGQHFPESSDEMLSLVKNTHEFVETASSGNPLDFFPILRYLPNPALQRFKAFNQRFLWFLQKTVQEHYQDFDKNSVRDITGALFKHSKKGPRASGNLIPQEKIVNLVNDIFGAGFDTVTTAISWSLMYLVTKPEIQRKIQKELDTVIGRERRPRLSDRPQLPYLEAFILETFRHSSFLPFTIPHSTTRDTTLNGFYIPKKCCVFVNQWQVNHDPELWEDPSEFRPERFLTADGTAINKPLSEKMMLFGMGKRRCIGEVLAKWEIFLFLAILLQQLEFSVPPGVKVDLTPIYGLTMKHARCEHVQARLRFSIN
Chain of CYP3A4 (P08684 whole entry): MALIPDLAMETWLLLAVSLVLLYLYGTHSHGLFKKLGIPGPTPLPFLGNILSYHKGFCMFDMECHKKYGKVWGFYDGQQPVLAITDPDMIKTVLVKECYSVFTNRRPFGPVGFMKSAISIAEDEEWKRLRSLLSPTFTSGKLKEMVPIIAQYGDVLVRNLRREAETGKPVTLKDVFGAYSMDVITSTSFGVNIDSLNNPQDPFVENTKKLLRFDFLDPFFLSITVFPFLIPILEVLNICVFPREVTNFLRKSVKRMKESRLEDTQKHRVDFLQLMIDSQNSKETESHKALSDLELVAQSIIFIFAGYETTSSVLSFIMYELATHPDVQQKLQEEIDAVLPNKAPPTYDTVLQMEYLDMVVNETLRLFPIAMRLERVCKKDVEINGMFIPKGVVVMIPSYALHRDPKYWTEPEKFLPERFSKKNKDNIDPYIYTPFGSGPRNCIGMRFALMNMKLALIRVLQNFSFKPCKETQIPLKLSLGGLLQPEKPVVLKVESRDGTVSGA
Chain of CYP2D6 (P10635 whole entry): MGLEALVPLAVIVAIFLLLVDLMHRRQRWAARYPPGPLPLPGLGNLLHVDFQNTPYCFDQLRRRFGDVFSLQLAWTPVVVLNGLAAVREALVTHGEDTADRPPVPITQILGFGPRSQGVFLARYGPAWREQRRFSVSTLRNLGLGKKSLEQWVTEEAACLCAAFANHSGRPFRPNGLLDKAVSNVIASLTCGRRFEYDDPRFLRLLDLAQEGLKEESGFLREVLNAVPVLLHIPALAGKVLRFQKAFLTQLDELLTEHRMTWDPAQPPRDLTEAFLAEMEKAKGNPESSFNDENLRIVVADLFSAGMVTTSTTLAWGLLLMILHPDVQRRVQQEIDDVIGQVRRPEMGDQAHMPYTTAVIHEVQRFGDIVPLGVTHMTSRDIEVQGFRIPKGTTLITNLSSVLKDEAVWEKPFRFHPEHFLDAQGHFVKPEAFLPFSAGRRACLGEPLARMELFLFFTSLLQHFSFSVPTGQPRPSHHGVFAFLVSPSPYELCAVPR

`CNC(=O)c1nccc2c(-c3cnc(Nc4ccc(OC(C)C)cc4)cc3C)c[nH]c12` [Compound 3 hydrochloride]: the IC50 (usually the midpoint of a concentration-inhibition curve) at CSF-1R was 34 nM.
For the molecule `CNC(=O)c1nccc2c(-c3cnc(Nc4ccc(OC5CC5)nc4)cc3C)c[nH]c12` [Compound 1 hydrochloride], the IC50 at CSF-1R is 1.13 nM; on CYP1A2, greater than 50 µM; on CYP2C9, 11.6 µM; on CYP2C19 it was 21 µM; on CYP2D6, greater than 50 µM; on CYP3A4, 28 µM. Besides, the “permeability compared with PLX-3397” value in the data set with MDR1-MDCK is “higher than that of PLX-3397”. The AUC(0-t) (in general, the area under the concentration-time curve up to a stated or last time point) in data set [1] (1 mg/kg, IV, 1 mpk) came out at 168 µM·h; in data set [1] (10 mg/kg, PO, 10 mpk), 1650 µM·h; in [2] (1 mg/kg, IV, 1 mpk) it was 66 µM·h; in data set [2] (3 mg/kg, PO, 3 mpk) it was 249 µM·h. Also, the Vd – broadly, a proportionality between amount in the body and measured concentration, not a real space – in data set [1] (1 mg/kg, IV, 1 mpk) is 0.15 L/kg; in data set [2] (1 mg/kg, IV, 1 mpk), 0.2 L/kg. Also, the clearance – broadly, the volume of plasma or blood freed of the substance per unit of time – came out at 0.012 L/h/kg in data set [1] (1 mg/kg, IV, 1 mpk) and 0.0366 L/h/kg in data set [2] (1 mg/kg, IV, 1 mpk). For the same molecule, the half-life (in general, the time in which the quantity being followed falls by half) in data set [1] (1 mg/kg, IV, 1 mpk) is 8.62 h; in data set [2] (1 mg/kg, IV, 1 mpk), 3.4 h. In addition, the Cmax (commonly the highest concentration seen after dosing) is 117 µM in data set [1] (10 mg/kg, PO, 10 mpk) and 27.4 µM in data set [2] (3 mg/kg, PO, 3 mpk). Besides, the time to peak (Tmax) (as a rule, the time at which the peak concentration occurs) in data set [1] (10 mg/kg, PO, 10 mpk) stood at 3 h; in data set [2] (3 mg/kg, PO, 3 mpk), 2 h. Also, the bioavailability in data set [1] (10 mg/kg, PO, 10 mpk) was found to be 98%; in [2] (3 mg/kg, PO, 3 mpk), 129%. Also, the “efficacy in TEL-CSF1R-BaF3 cell splenomegaly assay” value in data set [3] (1 mpk, comparable to PLX-3397 (10 mg/kg)) is “significant efficacy”; in [3] (10 mpk) it was “significant advantage”. In addition, the “dose-dependence in TEL-CSF1R-BaF3 cell splenomegaly assay” value in [3] (high, medium and low doses (10, 3, 1 mg/kg p.o. QD)) was “clear dose-dependence”.
Turning to `CNC(=O)c1nccc2c(-c3cnc(Nc4ccc(OC5CC5)nc4)cc3C)cn(C)c12` [Compound 2 hydrochloride], the IC50 on CSF-1R amounted to 26.8 nM.
On the same count and under the same terms, under `CNC(=O)c1nccc2c(-c3cnc(Nc4ccc(OC)cc4)cc3C)c[nH]c12` [Compound 8 hydrochloride] stands 10 nM; under `CNC(=O)c1nccc2c(-c3cnc(Nc4ccc(C)nc4)cc3C)c[nH]c12` [Compound 6 hydrochloride], 30 nM.
Turning to `Cl.FC(F)(F)c1ccc(CNc2ccc(Cc3c[nH]c4ncc(Cl)cc34)cn2)cn1` [PLX-3397, Pexidartinib, reference compound], the IC50 on CYP1A2 is 24 µM; on CYP2C9, 3.81 µM; at CYP2C19, 8.32 µM; at CYP2D6, 8.77 µM; at CYP3A4, greater than 35.6 µM. In addition, the area under the curve AUC(0-t) in [1] (1 mg/kg, IV, 1 mpk) was 29 µM·h; in data set [1] (10 mg/kg, PO, 10 mpk), 131 µM·h; in data set [2] (1 mg/kg, IV, 1 mpk), 8.49 µM·h; in data set [2] (10 mg/kg, PO, 10 mpk) it was 70.2 µM·h. Besides, the Vd came to 0.265 L/kg in [1] (1 mg/kg, IV, 1 mpk) and 0.613 L/kg in data set [2] (1 mg/kg, IV, 1 mpk). The clearance was determined as 0.0556 L/h/kg in [1] (1 mg/kg, IV, 1 mpk) and 0.278 L/h/kg in [2] (1 mg/kg, IV, 1 mpk). Also, the half-life was 3.33 h in data set [1] (1 mg/kg, IV, 1 mpk) and 1.27 h in data set [2] (1 mg/kg, IV, 1 mpk). Also, the highest concentration (Cmax) in [1] (10 mg/kg, PO, 10 mpk) was found to be 17.2 µM; in [2] (10 mg/kg, PO, 10 mpk) it was 10.7 µM. Further, the Tmax in [1] (10 mg/kg, PO, 10 mpk) stood at 4 h; in data set [2] (10 mg/kg, PO, 10 mpk), 1.5 h. Moreover, the bioavailability in data set [1] (10 mg/kg, PO, 10 mpk) is 74.1%; in data set [2] (10 mg/kg, PO, 10 mpk), 81%.
Regarding `CNC(=O)c1nccc2c(-c3cnc(Nc4ccc(OC)nc4)cc3C)c[nH]c12` [Compound 7 hydrochloride], at CSF-1R, the half-inhibitory concentration (IC50) stood at 26 nM.

These data come from US20230357241A1, “1H-PYRROLO[2,3-C]PYRIDINE COMPOUNDS AND APPLICATION THEREOF” (MEDSHINE DISCOVERY INC., priority 2020, published 2023).
